Reference: PMC10387993, “New pyrimidine-N-β-D-glucosides: synthesis, biological evaluation, and molecular docking investigations” (Turkish Journal of Chemistry, 2023)
≈ marks a conversion by molar mass, not a printed value. Where two headings read alike, the source gives them in different places.

Columns and labels:
Assay type in all cases: cell-based
A549 = assay: cells; conditions: Homo sapiens; for LC50 (concentration causing 50% net cell loss): A549, read-out: LC50; for GI50 / IC50 / IC (total growth inhibition): A549, MTT; for IC50: read-out: IC50; for IC (total growth inhibition): read-out: TGI
Description: (§1) The cell lines were cultured in a cell medium (Dulbecco’s modified eagle’s or RPMI 1640) enriched with 10% (v/v) fetal bovine serum and 2% (v/v) Penicillin-Streptomycin (10,000 U/mL). First, old medium was removed out of the flask when the cells reached approximately 80% confluence. Next, cells were taken from the flasks surface using trypsin-EDTA solution and then subjected to centrifugation. Following, the cell pellet was suspended with fresh media and was inoculated into wells.
(§2) A cell suspension containing approximately 1 × 10^4 cells in 100 μL was seeded into the wells of 96-well culture plates. […]. The final volume of the wells was set to 200 μL by medium. Cell proliferation assay was evaluated by MTT (yellow tetrazolium MTT (3-(4,5-dimethylthiazolyl-2)-2,5-diphenyltetrazolium bromide) methods. Briefly, an MTT stock solution (5 mg of MTT/mL of distilled water) was filtered and kept at −20 °C until use. The cells were exposed to an MTT reagent (consisting of one parts of MTT stock solutions and nine parts of fresh RPMI 1640 without phenol red) for 4 h to form MTT formazan dye followed by the dye dissolved in DMSO with Sorenson’s buffer for 30 min at room temperature and then the plate was measured at 560 nm, with 690 nm as a reference interval, using a microplate reader. Each experiment was repeated at least three times for each cell line.
(§3) IC50 value is a concentration that inhibits half of the cells in vitro. The half maximal inhibitory concentration (IC50) of the test and control compounds was calculated using XLfit5 or excel spreadsheet and represent in μM at 95% confidence intervals. The proliferation assay results were expressed as the percent inhibition according to the following formula: % Inhibition = [1 - (Absorbance of Treatments /Absorbance of DMSO) × 100]. Three dose response parameters (GI50, TGI, LC50) were calculated according to the following formulas using the absorbance measurements of time zero (Tz), control growth (C), and test growth in the presence of drug (Ti). Growth inhibition of 50% (GI50) was calculated from [(Ti-Tz)/(C-Tz)] × 100 = 50, which is the drug concentration resulting in a 50% reduction in the net growth increase in control cells during the drug incubation. The drug concentration resulting in total growth inhibition (TGI) was calculated from Ti = Tz. The LC50 indicating a net loss of cells following treatment was calculated from [(Ti-Tz)/Tz] × 100 = −50.

HeLa = assay: cells; conditions: Homo sapiens; for GI50 / IC50 / IC (total growth inhibition): MTT; for IC50: read-out: IC50; for IC (total growth inhibition): read-out: TGI; for LC50 (concentration causing 50% net cell loss): read-out: LC50
Description: as §1, §2, §3

in vitro = conditions: human, LC50
Description: as §1, §2, §3

normal FL cells = assay: cells; conditions: FL normal cells, MTT; for IC50: read-out: IC50; for IC (total growth inhibition): read-out: TGI
Description: as §1, §2, §3

[1] = LDH cytotoxic activity assay, HeLa; conditions: human, HeLa cells
Description: as §1
(§4) Approximately 5 × 10^3 cells in 100 μL were placed into 96-well plates as triplicates and treated with 25, 50, 75, and 100 μg/mL concentrations of test compounds at 37 °C with 5% CO2 for 24 h. LDH activity was obtained by determining absorbance at 492–630 nm using a microplate reader.

[2] = LDH cytotoxic activity assay, HT29; conditions: human, HT29 cells; for cytotoxicity at 24 h, 25 μg/mL: HT29, 25 μg/mL; for cytotoxicity at 24 h, 50 μg/mL: HT29, 50 μg/mL; for cytotoxicity at 24 h, 75 μg/mL: HT29, 75 μg/mL; for cytotoxicity at 24 h, 100 μg/mL: HT29, 100 μg/mL
Description: as §1, §4

[3] = system: A. actinomycetemcomitans ATCC 33384; assay: Microdilution MIC assay; conditions: Aggregatibacter actinomycetemcomitans, ATCC33384; A. actinomycetemcomitans ATCC 33384, 24 h at 35 °C
Description: (§5) MIC values of the compounds against bacterial strains were determined on the basis of a microwell dilution method. […] […]. Growth of microorganisms was determined visually after incubation for 24 h at 35 °C. The lowest concentration at which there was no visible growth (turbidity) was taken as the MIC.

E. coli ATCC 25922 = assay: Microdilution MIC assay; conditions: Escherichia coli, ATCC25922; E. coli ATCC 25922, 24 h at 35 °C
Description: as §5

E. coli ESBL ATCC 35218 = assay: Microdilution MIC assay; conditions: Escherichia coli, ATCC35218; E. coli ESBL ATCC 35218, 24 h at 35 °C
Description: as §5

E. faecalis ATCC 29212 = assay: Microdilution MIC assay; conditions: E. faecalis ATCC 29212, 24 h at 35 °C
Description: as §5

[4] = system: E. faecalis VRE ATCC 19433; assay: Microdilution MIC assay; conditions: Enterococcus faecalis; E. faecalis VRE ATCC 19433, 24 h at 35 °C
Description: as §5

[5] = system: P. aeruginosa AGME ATCC 27853; assay: Microdilution MIC assay; conditions: Pseudomonas aeruginosa, ATCC27853; P. aeruginosa AGME ATCC 27853, 24 h at 35 °C
Description: as §5

S. aureus ATCC 25923 = assay: Microdilution MIC assay; conditions: Staphylococcus aureus, ATCC25923, 24 h, S. aureus ATCC 25923, 24 h at 35 °C; read-out: MIC
Description: as §5

[6] = system: S. aureus MRSA ATCC 46300; assay: Microdilution MIC assay; conditions: Staphylococcus aureus; S. aureus MRSA ATCC 46300, 24 h at 35 °C; read-out: MIC
Description: as §5

[7] = system: S. aureus MSSA ATCC 29213; assay: Microdilution MIC assay; conditions: S. aureus MSSA ATCC 29213, 24 h at 35 °C
Description: as §5

S. gordonii NCTC 7870 = assay: Microdilution MIC assay; conditions: Streptococcus gordonii, NCTC7870; S. gordonii NCTC 7870, 24 h at 35 °C
Description: as §5

S. mutans ATCC 35668 = assay: Microdilution MIC assay; conditions: S. mutans ATCC 35668, 24 h at 35 °C
Description: as §5

[8] = Enterococcus faecalis, ATCC29212, 24 h, read-out: MIC
[9] = Staphylococcus aureus, 24 h, read-out: MIC
[10] = Streptococcus mutans, ATCC35668, 24 h, read-out: MIC

Row | Structure (SMILES) | LC50 (concentration causing 50% net cell loss) (A549) | GI50 (A549) | IC50 (A549) | IC (total growth inhibition) (A549) | GI50 (HeLa) | IC50 (HeLa) | IC (total growth inhibition) (HeLa) | LC50 (concentration causing 50% net cell loss) (HeLa) | LC50 (concentration causing 50% net cell loss) (in vitro) | GI50 (normal FL cells) | IC50 (normal FL cells) | IC (total growth inhibition) (normal FL cells) | cytotoxicity at 24 h, 25 μg/mL [1] | cytotoxicity at 24 h, 50 μg/mL [1] | cytotoxicity at 24 h, 75 μg/mL [1] | cytotoxicity at 24 h, 100 μg/mL [1] | cytotoxicity at 24 h, 25 μg/mL [2] | cytotoxicity at 24 h, 50 μg/mL [2] | cytotoxicity at 24 h, 75 μg/mL [2] | cytotoxicity at 24 h, 100 μg/mL [2] | further results
1 | Cc1cccc(-c2cc(-c3ccncc3)nc(N[C@@H]3O[C@H](CO)[C@@H](O)[C@H](O)[C@H]3O)n2)c1 [Compound 6, N-[4-(3-methylphenyl)-6-pyridin-4-ylpyrimidin-2-yl]-β-D-glucopyranosylamine] | > 500 µg/mL | 192 µg/mL (≈ 453 µM) | > 500 µg/mL | > 500 µg/mL | > 500 µg/mL | > 500 µg/mL | > 500 µg/mL | > 500 µg/mL | > 500 µg/mL | 8.04 µg/mL (≈ 18.9 µM) | > 500 µg/mL | > 500 µg/mL | 14.3% | 29.2% | 44.5% | 47.8% | 24.8% | 34.5% | 68.9% | 85.6% | MIC [3]: 500 µg/mL (≈ 1180 µM); MIC (E. coli ATCC 25922): > 1000 µg/mL; MIC (E. coli ESBL ATCC 35218): > 1000 µg/mL; MIC (E. faecalis ATCC 29212; [8]): 1000 µg/mL (≈ 2360 µM); MIC [4]: 1000 µg/mL (≈ 2360 µM); MIC [5]: > 1000 µg/mL; MIC (S. aureus ATCC 25923): 500 µg/mL (≈ 1180 µM); MIC [6]: 250 µg/mL (≈ 589 µM); MIC [7]: 125 µg/mL (≈ 294 µM); MIC [7, 9]: 62.5 to 125 µg/mL (≈ 147 to 294 µM); MIC (S. gordonii NCTC 7870): 250 µg/mL (≈ 589 µM); MIC (S. mutans ATCC 35668; [10]): 500 µg/mL (≈ 1180 µM)
2 | CC(=O)OC[C@H]1O[C@@H](Nc2nc(-c3ccncc3)cc(-c3cccc(C)c3)n2)[C@H](OC(C)=O)[C@@H](OC(C)=O)[C@@H]1OC(C)=O [Compound 15, 2,3,4,6-tetra-O-acetyl-N-[4-(3-methylphenyl)-6-pyridin-4-ylpyrimidin-2-yl]-β-D-glucopyranosylamine] | > 500 µg/mL | > 500 µg/mL | > 500 µg/mL | > 500 µg/mL | > 500 µg/mL | > 500 µg/mL | > 500 µg/mL | > 500 µg/mL | > 500 µg/mL | 26.7 µg/mL (≈ 45 µM) | > 500 µg/mL | > 500 µg/mL | 18.4% | 31.7% | 37.1% | 56% | 23.8% | 45% | 62.6% | 78.6% | MIC [3]: > 1000 µg/mL; MIC (E. coli ATCC 25922): > 1000 µg/mL; MIC (E. coli ESBL ATCC 35218): > 1000 µg/mL; MIC (E. faecalis ATCC 29212): 31.25 µg/mL (≈ 52.7 µM); MIC (E. faecalis ATCC 29212; [8]): 31.2 to 125 µg/mL (≈ 52.7 to 211 µM); MIC [4]: 1000 µg/mL (≈ 1690 µM); MIC [5]: > 1000 µg/mL; MIC (S. aureus ATCC 25923): 500 µg/mL (≈ 844 µM); MIC [6]: 250 µg/mL (≈ 422 µM); MIC [7, 9]: 250 µg/mL (≈ 422 µM); MIC (S. gordonii NCTC 7870): > 1000 µg/mL; MIC (S. mutans ATCC 35668): 62.5 µg/mL (≈ 105 µM); MIC (S. mutans ATCC 35668; [10]): 62.5 to 125 µg/mL (≈ 105 to 211 µM)
3 | Cc1cccc(-c2cc(-c3cccnc3)nc(N[C@@H]3O[C@H](CO)[C@@H](O)[C@H](O)[C@H]3O)n2)c1 [Compound 5, N-[4-(3-methylphenyl)-6-pyridin-3-ylpyrimidin-2-yl]-β-D-glucopyranosylamine] | > 500 µg/mL | 23.7 µg/mL (≈ 55.8 µM) | > 500 µg/mL | > 500 µg/mL | > 500 µg/mL | > 500 µg/mL | > 500 µg/mL | > 500 µg/mL | > 500 µg/mL | 4.16 µg/mL (≈ 9.8 µM) | 25.3 µg/mL (≈ 59.7 µM) | 25.8 µg/mL | 19.8% | 35.3% | 40.3% | 54.3% | 24.6% | 39.4% | 75.9% | 96.8% | MIC [3]: 250 µg/mL (≈ 589 µM); MIC (E. coli ATCC 25922): > 1000 µg/mL; MIC (E. coli ESBL ATCC 35218): > 1000 µg/mL; MIC (E. faecalis ATCC 29212; [8]): > 1000 µg/mL; MIC [4]: > 1000 µg/mL; MIC [5]: > 1000 µg/mL; MIC [6]: 250 µg/mL (≈ 589 µM); MIC [7]: 125 µg/mL (≈ 294 µM); MIC [7, 9]: 62.5 to 125 µg/mL (≈ 147 to 294 µM); MIC (S. gordonii NCTC 7870): 125 µg/mL (≈ 294 µM); MIC (S. mutans ATCC 35668; [10]): 500 µg/mL (≈ 1180 µM)
4 | Cc1ccccc1-c1cc(-c2cccnc2)nc(N[C@@H]2O[C@H](CO)[C@@H](O)[C@H](O)[C@H]2O)n1 [Compound 2, N-[4-(2-methylphenyl)-6-pyridin-3-ylpyrimidin-2-yl]-β-D-glucopyranosylamine] | > 500 µg/mL | 11.6 µg/mL (≈ 27.3 µM) | > 500 µg/mL | > 500 µg/mL | > 500 µg/mL | > 500 µg/mL | > 500 µg/mL | > 500 µg/mL | > 500 µg/mL | 3.68 µg/mL (≈ 8.67 µM) | 457 µg/mL (≈ 1080 µM) | > 500 µg/mL | 30.5% | 47.2% | 49.7% | 72.1% | 27.7% | 44.8% | 72.7% | 94.6% | MIC [3]: 250 µg/mL (≈ 589 µM); MIC (E. coli ATCC 25922): > 1000 µg/mL; MIC (E. coli ESBL ATCC 35218): > 1000 µg/mL; MIC (E. faecalis ATCC 29212; [8]): > 1000 µg/mL; MIC [4]: > 1000 µg/mL; MIC [5]: > 1000 µg/mL; MIC [6]: 125 µg/mL (≈ 294 µM); MIC [7]: 125 µg/mL (≈ 294 µM); MIC [7, 9]: 62.5 to 125 µg/mL (≈ 147 to 294 µM); MIC (S. gordonii NCTC 7870): 500 µg/mL (≈ 1180 µM); MIC (S. mutans ATCC 35668; [10]): 1000 µg/mL (≈ 2360 µM)
